We go through two molecules from ChEMBL document CHEMBL4828764, “Lead Optimization and Structure-Activity Relationship Studies on Myeloid Ecotropic Viral Integration Site 1 Inhibitor” (J Med Chem, 2021).

Common to all, as to format: cell-based
Data set [1] has as its target T1, Homeobox protein Meis1 (Homo sapiens) (UniProt O00470).
T1 sequence (whole entry): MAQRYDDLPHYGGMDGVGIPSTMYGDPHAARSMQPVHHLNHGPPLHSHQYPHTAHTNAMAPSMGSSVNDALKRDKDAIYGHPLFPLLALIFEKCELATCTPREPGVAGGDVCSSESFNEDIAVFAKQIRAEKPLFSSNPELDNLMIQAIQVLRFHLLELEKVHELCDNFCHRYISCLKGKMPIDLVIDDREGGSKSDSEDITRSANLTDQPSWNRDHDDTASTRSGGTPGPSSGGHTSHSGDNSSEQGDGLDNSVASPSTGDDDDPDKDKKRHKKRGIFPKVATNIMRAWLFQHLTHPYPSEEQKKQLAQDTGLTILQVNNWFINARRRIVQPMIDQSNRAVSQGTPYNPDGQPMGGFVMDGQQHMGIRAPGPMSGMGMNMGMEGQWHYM
Nature of the data set: Inhibition of MEIS1 (unknown origin) expressed in HEK293T cells co-expressing MEIS-Luc-pGL2 assessed as downregulation of p21 gene expression by measuring mRNA level at 10 uM incubated for 2 days by RT-qPCR analysis. The arrangement: scale not given: the % may be the effect or the level left. The following applies: time 2.0 day.

Data set [2] in a line: Cytotoxicity against HDF assessed as cell viability at 10 uM incubated for 72 hrs by MTS assay. The following applies: human, HDF (NHDF) cells, read-out: Activity. (In general: Tetrazolium assays rely on reduction of a dye to a coloured formazan, in cell work by metabolically active cells.)
In data set [3] the target is T1, Homeobox protein Meis1 (Homo sapiens). Nature of the data set: Inhibition of MEIS1 (unknown origin) expressed in HEK293T cells co-expressing MEIS-Luc-pGL2 assessed as downregulation of Meis1 gene expression measuring mRNA level at 10 uM incubated for 2 days by RT-qPCR analysis. More on the design: scale not given: the % may be the effect or the level left. The note with it: time 2.0 day. In general terms: Quantitative PCR measures a nucleic acid by following its amplification.

Data set [4] shares this target. Nature of the data set: Inhibition of MEIS1 (unknown origin) expressed in HEK293T cells co-expressing MEIS-Luc-pGL2 assessed as downregulation of Hif-Ialpha gene expression measuring mRNA level at 10 uM incubated for 2 days by RT-qPCR analysis. The following applies: time 2.0 day.
For data set [5] the target is unchanged. Nature of the data set: Inhibition of MEIS1 (unknown origin) expressed in HEK293T cells co-expressing MEIS-Luc-pGL2 assessed as luciferase activity at 10 uM incubated for 48 hrs by luciferase reporter assay related to protein content. The arrangement: scale not given: the % may be the effect or the level left.
The target is the same in data set [6]. Nature of the data set: Inhibition of MEIS1 (unknown origin) expressed in HEK293T cells co-expressing MEIS-Luc-pGL2 assessed as luciferase activity at 10 uM incubated for 48 hrs by luciferase reporter assay related to […] control. The arrangement: scale not given: the % may be the effect or the level left. A general note: A reporter such as luciferase makes a cellular process visible.

Each structure is given as a SMILES string. The source made the active and inactive calls. No cut-off for these calls is given here.

For `Cc1cccc(NC(=O)c2ccc(OCC(=O)NCc3ccccc3Cl)cc2)c1C`, the Activity in data set [1] was found to be 25.3%; in data set [3], 13.7%; in data set [5], 43%; in data set [6] it was 34%. The viability at 72 h, 10 µM in data set [2] turned out to be 64.8%. The result in data set [4] was Active.
In the case of `CCc1ccccc1NC(=O)c1ccc(OCC(=O)NCc2ccc(Cl)cc2)cc1`, the Activity is 139% in data set [1], 19.2% in data set [3], 51% in data set [5] and 36% in data set [6]. Also, the viability at 72 h, 10 µM in data set [2] worked out at 31.3%. For the same molecule, in data set [4], the outcome was Active.
